# Earlier results in patent US9387169B2, “Rapamycin powders for pulmonary delivery” (Civitas Therapeutics, Inc., priority 2014, dated 2016).
# Conditions: amorphous form
smiles,measurement,value
"CO[C@H]1C[C@@H]2CC[C@@H](C)[C@@](O)(O2)C(=O)C(=O)N2CCCC[C@H]2C(=O)O[C@H]([C@H](C)C[C@@H]2CC[C@@H](O)[C@H](OC)C2)CC(=O)[C@H](C)/C=C(\C)[C@@H](O)[C@@H](OC)C(=O)[C@H](C)C[C@H](C)/C=C/C=C/C=C/1C [amorphous rapamycin, rapamycin]",chemical stability,extremely chemically unstable
